Reference: ChEMBL document CHEMBL6087448, “Eradication of Therapy-Resistant Cancer Stem Cells by Novel Telmisartan Derivatives” (J Med Chem, 2025)
The source made the active and inactive calls. The calls are words filed in the database; no cut-off is given here.

Experiments:
[1] = tested on: K-562R; assay: Sensitization of imatinib-induced cytotoxicity against human K562-r cells assessed as metabolic activity at 8 uM measured after 72 hrs by MTT assay relative to control; type: functional
[2] = tested on: K-562R; assay: Sensitization of imatinib-induced cytotoxicity against human K562-r cells assessed as cell viability at 10 uM measured after 72 hrs by MTT assay relative to control; type: functional; conditions: read-out: Activity
[3] = tested on: COS-7; assay: Cytotoxicity against African green monkey COS-7 cells assessed as reduction in metabolic activity at 10 uM incubated for 72 hrs by MTT assay; type: toxicity, cell-based; conditions: chlorocebus aethiops, cos-7, 72 h
[4] = tested on: K-562R; assay: Inhibition of side population phenotype in human K562-r cells at 10 uM incubated for 90 mins by DCV staining based flow cytometric analysis relative to control; type: functional
[5] = tested on: K562-r; assay: Inhibition of STAT5 phosphorylation in human K562-r cells at 4 uM measured after 72 hrs by Western blotting based immunoassay; type: cell-based
[6] = tested on: K562-r; assay: Effect on STAT5 phosphorylation in human K562-r cells at 4 uM measured after 6 hrs by Western blotting based immunoassay; type: cell-based
[7] = tested on: K-562R; assay: Effect on ABCB1 protein expression in human K562-r cells at 4 uM incubated for 72 hrs by Western blotting based immunoassay; type: functional, cell-based
[8] = tested on: K562-r; assay: Effect on STAT5 phosphorylation in human K562-r cells at 4 uM measured after 6 hrs in presence of imatinib by Western blotting based immunoassay; type: cell-based
[9] = tested on: K-562R; assay: Sensitization of imatinib-induced cytotoxicity against human K562-r cells assessed as reduction in metabolic activity at 10 uM measured after 72 hrs by MTT assay; type: functional, cell-based
[10] = tested on: K562; assay: Cytotoxicity against human K562 cells assessed as reduction in metabolic activity at 10 uM measured after 72 hrs by MTT assay; type: functional, cell-based
[11] = tested on: K-562R; assay: Cytotoxicity against human K562-r cells assessed as reduction in metabolic activity; type: functional, cell-based
[12] = tested on: K-562R; assay: Sensitization of imatinib-induced cytotoxicity against human K562-r cells assessed as reduction in metabolic activity at 0.5 to 6 uM measured after 72 hrs by MTT assay; type: functional, cell-based; conditions: dose 0.5-6 µM
[13] = tested on: K-562R; assay: Cytotoxicity against human K562-r cells assessed as cell viability at 10 uM incubated for 72 hrs by MTT assay relative to control; type: functional; conditions: read-out: Activity
[14] = tested on: K-562R; assay: Inhibition of side population phenotype in human K562-r cells at 0.1 uM incubated for 90 mins by DCV staining based flow cytometric analysis; type: functional, cell-based
[15] = tested on: K562-r; assay: Effect on STAT5 phosphorylation in human K562-r cells at 4 uM measured after 72 hrs by Western blotting based immunoassay; type: cell-based
[16] = tested on: K562-r; assay: Inhibition of STAT5 phosphorylation in human K562-r cells at 4 uM measured after 6 hrs in presence of imatinib by Western blotting based immunoassay; type: cell-based
[17] = tested on: Paclitaxel-resistant IGROV-1 cell; assay: Inhibition of STAT5 phosphorylation in human Paclitaxel-resistant IGROV-1 cells expressing ABCB1 at 10 uM incubated for 72 hrs by Western blotting based immunoassay
[18] = tested on: Paclitaxel-resistant IGROV-1 cell; assay: Enhancement of paclitaxel-induced anti-metabolic activity in human Paclitaxel-resistant IGROV-1 cells assessed as reduction in metabolic activity upto 300 nM measured after 72 hrs by MTT assay; type: functional, cell-based
[19] = tested on: Paclitaxel-resistant IGROV-1 cell; assay: Inhibition of side population phenotype in human Paclitaxel-resistant IGROV-1 cells expressing ABCB1 at 10 uM incubated for 90 mins by DCV staining based flow cytometric analysis; type: functional
[20] = tested on: A2780/Taxol; assay: Inhibition of side population phenotype in human Paclitaxel-resistant A2780 cells expressing ABCB1 at 10 uM incubated for 90 mins by DCV staining based flow cytometric analysis; type: functional, cell-based
[21] = tested on: MCF7; assay: Inhibition of STAT5 phosphorylation in human MCF7 cells at 10 uM incubated for 72 hrs by Western blotting based immunoassay; type: cell-based
[22] = tested on: A549; assay: Effect on STAT5 protein expression in human A549 cells at 10 uM incubated for 72 hrs by Western blotting based immunoassay; type: functional, cell-based
[23] = tested on: Paclitaxel-resistant IGROV-1 cell; assay: Downregulation of STAT5 protein expression in human Paclitaxel-resistant IGROV-1 cells expressing ABCB1 at 10 uM incubated for 72 hrs by Western blotting based immunoassay; type: functional
[24] = tested on: A549; assay: Inhibition of STAT5 phosphorylation in human A549 cells at 10 uM incubated for 72 hrs by Western blotting based immunoassay; type: cell-based
[25] = tested on: A2780/Taxol; assay: Effect on STAT5 protein expression in human Paclitaxel-resistant A2780 cells expressing ABCB1 at 10 uM incubated for 72 hrs by Western blotting based immunoassay; type: functional, cell-based
[26] = tested on: A2780/Taxol; assay: Sensitization of paclitaxel-induced cytotoxicity against human Paclitaxel-resistant A2780 cells assessed as reduction in metabolic activity at 10 uM measured after 72 hrs by MTT assay; type: functional, cell-based
[27] = tested on: A549; assay: Inhibition of side population phenotype in human A549 cells expressing ABCC1 at 10 uM incubated for 90 mins by DCV staining based flow cytometric analysis; type: functional, cell-based
[28] = tested on: Docetaxel-resistant DU145 cell; assay: Inhibition of side population phenotype in human Docetaxel-resistant DU145 cell expressing ABCB1 at 10 uM incubated for 90 mins by DCV staining based flow cytometric analysis; type: functional
[29] = tested on: MCF7; assay: Effect on STAT5 protein expression in human MCF7 cells at 10 uM incubated for 72 hrs by Western blotting based immunoassay; type: functional, cell-based
[30] = tested on: Paclitaxel-resistant A2780; assay: Inhibition of STAT5 phosphorylation in human Paclitaxel-resistant A2780 cells expressing ABCB1 at 10 uM incubated for 72 hrs by Western blotting based immunoassay; type: cell-based
[31] = tested on: MCF7; assay: Inhibition of side population phenotype in human MCF7 cells expressing ABCG2 at 10 uM incubated for 90 mins by DCV staining based flow cytometric analysis; type: functional, cell-based
[32] = tested on: Docetaxel-resistant PC-3 cell; assay: Inhibition of side population phenotype in human Docetaxel-resistant PC-3 cell expressing ABCB1 at 10 uM incubated for 90 mins by DCV staining based flow cytometric analysis; type: functional
[33] = tested on: Docetaxel-resistant PC-3 cell; assay: Enhancement of docetaxel-induced anti-metabolic activity against human Docetaxel-resistant PC-3 cell assessed as reduction in metabolic activity at 10 uM measured after 72 hrs by MTT assay; type: functional, cell-based
[34] = tested on: Docetaxel-resistant DU145 cell; assay: Enhancement of docetaxel-induced anti-metabolic activity against human Docetaxel-resistant DU145 cell assessed as reduction in metabolic activity at 10 uM measured after 72 hrs by MTT assay; type: functional, cell-based

CCCc1nc2ccccc2n1Cc1ccc(C(=O)OC)cc1
Activity [1]: 44% | viability at 10 µM [2]: 34% | Activity [3]: Non-toxic | inhibition [4]: inactive

CCCc1nc2ccccc2n1Cc1ccc(-c2ccccc2C(=O)OC)cc1
inhibition [5]: Active; Lesser Effect Observed | Activity [6]: inactive | Activity [7]: inactive | Activity [8]: inactive | Activity [3]: Non-toxic | inhibition [4]: Active

CCCc1nc2ccccc2n1Cc1ccc(-c2cccc(C(=O)O)c2)cc1
Activity [9]: inactive | Activity [3]: Non-toxic

CCCc1nc2ccccc2n1Cc1ccc(C(N)=O)cc1
Activity [9]: inactive | Activity [3]: Non-toxic

COc1ccc(CCN(C)CCCC(C#N)(c2ccc(OC)c(OC)c2)C(C)C)cc1OC (configuration not stated)
Activity [10]: inactive | Activity [11]: inactive | Activity [12]: Active

CCCc1nc2ccccc2n1Cc1ccccc1C(N)=O
Activity [9]: inactive | Activity [3]: Non-toxic | viability at 10 µM [13]: ~75%

CCCc1nc2ccccc2n1Cc1cccc(C(=O)OC)c1
Activity [1]: 44% | viability at 10 µM [2]: 34% | Activity [3]: Non-toxic | inhibition [4]: inactive

COc1cc2c(cc1OC)CN(CCc1ccc(NC(=O)c3cccc4c(=O)c5cccc(OC)c5[nH]c34)cc1)CC2
inhibition [14]: Active | Activity [15]: inactive | Activity [6]: inactive | Activity [10]: inactive | Activity [11]: inactive | Activity [8]: inactive | Activity [12]: Active

CCCc1nc2ccccc2n1Cc1ccc(-c2ccccc2C(N)=O)cc1
Activity [3]: Non-toxic

CCCc1nc2ccccc2n1Cc1ccc(-c2ccc(C(=O)O)cc2)cc1
Activity [9]: inactive | Activity [3]: Non-toxic

CCCc1nc2ccccc2n1Cc1ccc(-c2ccc(C(=O)OC)cc2)cc1
inhibition [16]: Active | inhibition [5]: Active | Activity [6]: inactive | Activity [7]: inactive | Activity [3]: Non-toxic | viability at 10 µM [13]: ~75% | inhibition [4]: Active

CCCc1nc2ccccc2n1Cc1ccc(C(=O)O)cc1
Activity [9]: inactive | Activity [3]: Non-toxic

CCCc1nc2ccccc2n1Cc1ccc(-c2cccc(C(N)=O)c2)cc1
inhibition [17]: Active | Activity [18]: Active | inhibition [19]: Active | inhibition [16]: Active | inhibition [20]: Active | inhibition [5]: Active; Lesser Effect Observed | inhibition [21]: Active | Activity [6]: inactive | Activity [22]: inactive | Activity [7]: inactive | Activity [23]: Active | inhibition [24]: Active | Activity [25]: inactive | Activity [26]: Active | inhibition [27]: inactive | inhibition [28]: Active | Activity [29]: inactive | inhibition [30]: Active | inhibition [31]: inactive | inhibition [32]: Active | Activity [33]: Active | Activity [34]: Active | Activity [3]: Non-toxic | inhibition [4]: Active

CCCc1nc2ccccc2n1Cc1ccc(-c2cccc(C(=O)OC)c2)cc1
viability at 10 µM [2]: 34% | Activity [3]: Non-toxic

CCCc1nc2ccccc2n1Cc1ccc(-c2ccc(C(N)=O)cc2)cc1
inhibition [17]: Active | Activity [18]: Active | inhibition [19]: Active | inhibition [16]: Active | inhibition [20]: Active | inhibition [5]: Active | inhibition [21]: Active | Activity [6]: inactive | Activity [22]: inactive | Activity [7]: inactive | Activity [23]: Active | inhibition [24]: Active | Activity [25]: inactive | Activity [26]: Active | inhibition [27]: inactive | inhibition [28]: Active | Activity [29]: inactive | inhibition [30]: Active | inhibition [31]: inactive | inhibition [32]: Active | Activity [33]: Active | Activity [34]: Active | Activity [3]: Non-toxic | inhibition [4]: Active

CCCc1nc2ccccc2n1Cc1ccc(-c2ccccc2C(=O)O)cc1
Activity [9]: inactive | Activity [3]: Non-toxic

C/C=C/C[C@@H](C)C(=O)[C@H]1C(=O)N[C@@H](C(C)C)C(=O)N(C)CC(=O)N(C)[C@@H](CC(C)C)C(=O)N[C@@H](C(C)C)C(=O)N(C)[C@@H](CC(C)C)C(=O)N[C@@H](C)C(=O)N[C@H](C)C(=O)N(C)[C@@H](CC(C)C)C(=O)N(C)[C@@H](CC(C)C)C(=O)N(C)[C@@H](C(C)C)C(=O)N1C
Activity [10]: inactive | Activity [11]: inactive | Activity [12]: Active

CCCc1nc2ccccc2n1Cc1ccccc1C(=O)O
Activity [9]: inactive | Activity [3]: Non-toxic

CCCc1nc2ccccc2n1Cc1cccc(C(N)=O)c1
Activity [9]: inactive | Activity [3]: Non-toxic

CCCc1nc2ccccc2n1Cc1cccc(C(=O)O)c1
Activity [9]: inactive | Activity [3]: Non-toxic

CCCc1nc2ccccc2n1Cc1ccccc1C(=O)OC
Activity [1]: 44% | inhibition [5]: Active; Lesser Effect Observed | Activity [6]: inactive | Activity [7]: inactive | viability at 10 µM [2]: 34% | Activity [8]: inactive | Activity [3]: Non-toxic | inhibition [4]: inactive
